According to patent US8329645B2, “Polymyxin derivatives and uses thereof” (priority 2008, dated 2012):
Where a SMILES comes first, the peptide text is derived from it. Bridges are numbered along the chain shown (N, C = ends). [ ]: non-standard residue; d: D form. The star is where a group is joined. Decanoyl = CCCCCCCCCC(=O)*; Octanoyl = CCCCCCCC(=O)*; Dab = NCC[C@H](N)C(=O)O; Abu = CC[C@H](N)C(=O)O

Legend:
E. coli IH3080 [1] = test: Sensitization to rifampin: growth inhibition around wells on LB plates containing rifampin; type: cell-based, Escherichia coli; settings: 4 μg of compound
E. coli strains = type: cell-based, Escherichia coli
Procedure: Polymyxin B sulfate (Sigma-Aldrich, St. Louis, Mo., USA) was used as a control. […] Fourteen (14) strains (the F-strains) were purchased from Mobidiag Ltd., Helsinki, Finland. Besides bacteria, the MIC was also determined for the yeast Candida albicans (ATCC 28366 from ATCC). The inocula were prepared by adjusting the bacterial suspensions to a density equivalent to OD546 nm˜0.3 (˜10^8 CFU/ml˜0.5 McFarland) the yeast suspension to a density equivalent to OD546 nm˜0.75 (˜2×10^7 CFU/ml)._The suspensions were diluted to 10^7 CFU/ml. The plates were inoculated by using a Denley Multipoint Inoculator, 1 μl per spot corresponding to approx. 10^4 CFU/spot. Plates were incubated for 16-20 hours at 35° C. […] Both agents had good activity also against other polymyxin-susceptible strains of Enterobacteriaceae. […] S. aureus and C. albicans were resistant to the NAB peptides.

E. coli IH3080 [2] = test: Experimental E. coli peritonitis model in mice, NAB739 (Example 18); type: in vivo
Procedure: A suspension of E. coli IH3080 (K1:O18) in saline (0.9% NaCl) was prepared from an overnight culture on a blood agar plate (Statens Serum Institut, Copenhagen, Denmark). All mice (female NMR1 from Harlan Scandinavia, Allerød, Denmark; weight, 25-30 g) were inoculated intraperitoneally with 0.5 ml of the suspension containing 0.96×10^6 CFU per ml in the lateral lower quadrant of the abdomen. At 1 h, the CFU count was determined from three mice and the remaining mice (four mice per group) were treated with a subcutaneous injection of 0.2 ml of erythromycin solution in saline (corresponding to 5 mg/kg body weight) or NAB7061 solution in saline (corresponding to 5 mg/kg body weight), or both erythromycin and NAB7061 (corresponding to 5 mg/kg body weight of both drugs; given at two separate sites). Control group received two 0.2 ml injections of saline. At 4.5 h postinfection, all mice were anaesthetized with CO2 and sacrificed. Sterile saline (2 ml) was injected intraperitoneally and the abdomen was gently massaged before it was opened and the fluid sampled. Appropriate dilutions of the fluid were plated on blood agar plates, the plates were incubated overnight, and the colonies were counted.
The experiment was performed by using the methodology described in Example 12.
The mice were inoculated intraperitoneally with 0.5 ml of the E. coli IH3080 suspension containing 1×10^6 CFU per ml. The treatment groups (7 animals per group) were the following: A, control animals receiving saline; B, animals receiving the dose of 1 mg/kg of NAB739 subcutanously at 1 h and at 3 h postinfection; C, animals receiving the dose of 2 mg/kg of NAB739 subcutanously at 1 h and at 3 h postinfection; D, animals receiving the dose of 4 mg/kg of NAB739 subcutanously at 1 h and at 3 h postinfection; E, animals receiving the dose of 2 mg/kg of the control compound, polymyxin B sulfate (Sigma-Aldrich, P0972) subcutanously at 1 h and at 3 h postinfection.

E. coli ATCC25922 [3] = test: Growth inhibition around wells on LB agar plates; type: cell-based, Escherichia coli
Procedure: (§1) From an overnight-grown culture of IH3080 on LB agar, a suspension of approx. 10^8 cells/ml was prepared in 0.9% NaCl. Aliquots of this suspension were then pipetted on the agar plates and the plates were gently shaken to spread the suspension evenly on the entire surface of the plate. Thereafter, the unabsorbed part of the suspension was removed by using a Pasteur pipette. After the surface had dried, small wells (diameter, 2 mm) were drilled on the plates (five wells per plate) by using a sterile sharp-edged narrow metal tube, single-use pipette tip, and vacuum suction. An alternative method used a swab to spread the inoculum. Samples (4 μl and 10 μl) of the peptide solution in 0.9% NaCl (at concentrations of 1 μg/ml and 0.1 μg/ml) were then pipetted to the wells and the sample fluids were allowed to absorb. Controls included 0.9% NaCl solution without the compound to be tested. The plates were then incubated for 18 h at 37° C. whereafter the diameters of growth inhibition zones around each well were measured; the diameter of the well itself was not reduced. Finally, the diameters were converted to surface areas of growth inhibition (in square mm).
(§2) The susceptibility of eleven Gram-negative bacterial strains (nine different species) to NAB734 and polymyxin B was compared by using the susceptibility determination method described in Example 2. The strains included those belonging to the species of Serratia marcescens and Proteus mirabilis, both species generally known to be resistant to polymyxin. Furthermore, the susceptibility determination was also performed by using the Gram-positive bacterium, Staphylococcus aureus, also generally known to be polymyxin-resistant. Ten of the strains originated from ATCC (American Type Culture Collection, Manassas, Va., U.S.A.), and one from CCUG (Culture Collection of University of Gothenburg, Sweden). The source of E. coli IH3080 has been described in Example 2. Polymyxin B sulfate was from Sigma-Aldrich (St. Louis, Mo., USA).

K. oxytoca ATCC13182 = test: Growth inhibition around wells on LB agar plates; type: cell-based, Klebsiella oxytoca; settings: 4 μg
Procedure: as §1, §2

E. coli ATCC25922 [4] = system: E. coli ATCC25922
Procedure, shortened: (§3)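 MICs were read from antibiotic gradient strips applied according to the manufacturer's instructions.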

K. pneumoniae ATCC13883 = system: K. pneumoniae ATCC13883
Procedure, shortened: as §3

E. cloacae ATCC23355 = test: E-test MIC with or without NAB7061 (4 μg/ml), Mueller-Hinton agar; type: cell-based, Enterobacter cloacae
Procedure, shortened: as §3

[5] = Two-week intravenous toxicity study in young rats; type: in vivo; settings: for lowest dose that negatively influenced the body weight gain: intravenously twice a day for two weeks
Procedure: Toxicity in young rats (weighing approx. 150 g in the beginning of the study) was determined by administering doses (1, 2, 4, 8, 16, and 32 mg/kg per day) of NAB7061 as well as the control compound polymyxin B intravenously twice (2) a day for two weeks. A group of ten (10) rats was studied for each dosage regimen. Clinical observations were made daily, the body weight measured twice weekly, and the food consumption twice weekly. In the end of week 2, all animals were sacrificed.
Histopathology of kidneys was performed for each animals and histopathology of all tissues was performed in three high-dose groups receiving NAB7061.

Row | Compound | growth inhibition around a well in the presence of rifampin (E. coli IH3080 [1]; rifampin 0 μg/ml) [square millimeters] | growth inhibition around a well in the presence of rifampin (E. coli IH3080 [1]; rifampin 0.1 μg/ml) [square millimeters] | growth inhibition around a well in the presence of rifampin (E. coli IH3080 [1]; rifampin 1.0 μg/ml) [square millimeters] | MIC values, range for E. coli strains (E. coli strains) [µg/mL] | CFU counts from the peritoneum, fold lower than in the saline control group (E. coli IH3080 [2]; 1 mg/kg s.c. at 1 h and 3 h, 7 h postinfection) | CFU counts from the peritoneum, fold lower than in the saline control group (E. coli IH3080 [2]; 2 mg/kg s.c. at 1 h and 3 h, both 4 h and 7 h postinfection) | CFU counts from the peritoneum, fold lower than in the saline control group (E. coli IH3080 [2]; 4 mg/kg s.c. at 1 h and 3 h, both 4 h and 7 h postinfection) | growth inhibition around a well (E. coli ATCC25922 [3]; 4 μg) [square millimeters] | growth inhibition around a well (E. coli ATCC25922 [3]; 10 μg) [square millimeters] | growth inhibition around a well (K. oxytoca ATCC13182) [square millimeters] | Sensitization factor to antibiotic (MIC without / with 4 μg/ml of NAB 7061) (E. coli ATCC25922 [4]; E. coli ATCC25922) | Sensitization factor to antibiotic (MIC without / with 4 μg/ml of NAB 7061) (K. pneumoniae ATCC13883; K. pneumoniae ATCC13883) | Sensitization factor to antibiotic (MIC without / with 4 μg/ml of NAB 7061) (E. cloacae ATCC23355) | lowest dose that negatively influenced the body weight gain ([5]; rats) [mg/kg per day] | MIC of NAB7061 (E. coli ATCC25922 [4]; ATCC 25922) [µg/mL] | MIC of NAB7061 (K. pneumoniae ATCC13883; ATCC 13883) [µg/mL] | rise of blood urea nitrogen (BUN) versus control or low dose group ([5]; 16 mg/kg per day, end of the study) | general pathology and histopathology of organs and kidneys ([5]; rats, two weeks)
1 | CCCCCCCC(=O)N[C@H](C(=O)N[C@H](CO)C(=O)N[C@H]1CCNC(=O)[C@H]([C@@H](C)O)NC(=O)[C@H](CCN)NC(=O)[C@H](CCN)NC(=O)[C@H](CC(C)C)NC(=O)[C@@H](Cc2ccccc2)NC(=O)[C@H](CCN)NC1=O)[C@@H](C)O [NAB 739, OA-Thr-DSer-cy[Dab-Dab-DPhe-Leu-Dab-Dab-Thr-]] (Octanoyl-T[dS][Dab][Dab][dF]L[Dab][Dab]T; lactam 3-C) | 133 | 177 | 201 | 0.5 to 1 | ≥ 10 000 fold | ≥ 10 000 fold | ≥ 10 000 fold |  |  |  |  |  |  |  |  |  |  | 
2 | Polymyxin B [reference compound] | 79 | 95 | 104 |  |  |  |  | 95 | 133 | 79 | 5 | 1 | 4 | 1 |  |  |  | 
3 | CCCCCCCC(=O)N[C@H](C(=O)N[C@@H](CC)C(=O)N[C@H]1CCNC(=O)[C@H]([C@@H](C)O)NC(=O)[C@H](CCN)NC(=O)[C@H](CCN)NC(=O)[C@H](CC(C)C)NC(=O)[C@@H](Cc2ccccc2)NC(=O)[C@H](CCN)NC1=O)[C@@H](C)O [NAB 7061, OA-Thr-Abu-cy[Dab-Dab-DPhe-Leu-Dab-Dab-Thr-]] (Octanoyl-T[Abu][Dab][Dab][dF]L[Dab][Dab]T; lactam 3-C) | 0 |  |  |  |  |  |  |  |  |  |  |  |  | 8 | 16 | > 16 | no such a rise was found | No NAB7061-related pathological findings were found
4 | CCCCCCCCCC(=O)N[C@H](C(=O)N[C@H](CO)C(=O)N[C@H]1CCNC(=O)[C@H]([C@@H](C)O)NC(=O)[C@H](CCN)NC(=O)[C@H](CCN)NC(=O)[C@H](CC(C)C)NC(=O)[C@@H](Cc2ccccc2)NC(=O)[C@H](CCN)NC1=O)[C@@H](C)O [NAB 740, DA-Thr-DSer-cy[Dab-Dab-DPhe-Leu-Dab-Dab-Thr-]] (Decanoyl-T[dS][Dab][Dab][dF]L[Dab][Dab]T; lactam 3-C) | 95 | 95 | 95 | 1 to 2 |  |  |  |  |  |  |  |  |  |  |  |  |  | 
